From BindingDB's records for patent US20250263370 (Tay Therapeutics, 2025) come the findings set out here.

Assay [1] addresses T1, Bromodomain-containing protein 4 [348-457] (Human, UniProt O60885).
T1 construct: 348-457
Put plainly: Biological Activity Primary Activity Assay.
Procedure: (§1) 90 μL per well of cell suspension without tracer was also dispensed into at least 3 wells as “No tracer control samples” for background correction. Serially diluted test compounds were prepared at 1000× concentration in DMSO and further diluted to 10× concentration in Opti-MEM. […] Plates were then incubated at 37° C. +5% 002 incubator for 2 hours.

Assay [2] concerns the target Bromodomain-containing protein 4 [58-164] (Homo sapiens, UniProt O60885). Kind of assay: Biological Activity Primary Activity Assay.
Procedure: as §1

Broadly, the IC50 is the concentration at which inhibition is half-maximal. Higher therefore signals a need for much substance. For `CNC(=O)c1c(OC(C)c2ccc3c(c2)COC3)cc(C(N)=O)n1C` (centres undefined) [US20250263370, Example 15], the IC50 entry in assay [1] is “in the range around 0.6 µM”; in assay [2], above 10 µM.

With `CCNC(=O)c1[nH]c(C(=O)NC)c([C@H](C)c2ccccc2F)c1C` [US20250263370, Example 74], the 50% inhibitory concentration (IC50) result in assay [1] was “in the range around 5.5 µM”; in assay [2], above 10 µM.
